Experimental data reported in PMC8912909, “Drug development for the treatment of onchocerciasis: Population pharmacokinetic and adverse events modeling of emodepside” (PLoS Neglected Tropical Diseases, 2022).

Assays:
[1] = Safety analysis: drug-related treatment-emergent adverse events (TEAE) in three phase I studies; type: in vivo, human
Description: For a detailed safety analysis for emodepside, based on the entire safety population (pharmacokinetic sample and placebo arms) of the phase I clinical trials the reader is referred to the recently published article by Gillon et al.. In the present study, the safety analysis and exposure–adverse events analysis was performed on all subjects whom were included in the population pharmacokinetic analysis (n = 142), i.e. all subjects who received at least 1 dose of the study drug as LSF solution, ASD-tablet A or ASD-tablet B. Safety was assessed in terms of incidence of a drug-related TEAE (as assessed by the investigator) and reported as Medical Dictionary for Regulatory Activities (MedDRA) code. A TEAE was defined as an event that emerged during treatment and having been absent pretreatment, or that worsened relative to the pretreatment state.

[2] = Population pharmacokinetic model (NONMEM) of pooled phase I plasma and DBS concentrations
[3] = human, in vivo, po; cited from earlier work
Description: Currently, emodepside is under clinical development for the treatment of onchocerciasis, following a repurposing strategy and a collaboration agreement between DNDi and Bayer AG [26]. The safety, pharmacokinetics and relative bioavailability of emodepside after oral dosing in healthy male subjects have been evaluated in three phase I clinical trials, including a First-in-Human study. […] The long terminal half-life (> 20 d ...

[4] = Linear regression of DBS vs. plasma concentrations; set-up: species or system human; details: DBS concentration = slope × plasma concentration-0.592; r^2 = 0.987, n = 228
Description: Deuterated emodepside-D16 was used as the internal standard.
Supplementary file pntd.0010219.s008.tif: S1 Fig Linear regression analysis (emodepside DBS vs. plasma concentrations). Observations are represented by black open circles, the black solid line represents the line of identity, and the black dotted line represents the linear regression. DBS concentration = 0.605 × plasma concentration-0.592 (r^2 = 0.987, standard error of estimate, SEE = 5.74, n = 228). (TIF) Click here for additional data file.

[5] = test system: CYP3A4; details: has been shown; no reference given; cited from earlier work
[6] = inter-compartmental clearance, oral, 75 kg adult, n = 142
[7] = nonparametric bootstrap, 75 kg adult

CC(C)C[C@H]1C(=O)O[C@H](Cc2ccc(N3CCOCC3)cc2)C(=O)N(C)[C@@H](CC(C)C)C(=O)O[C@H](C)C(=O)N(C)[C@@H](CC(C)C)C(=O)O[C@H](Cc2ccc(N3CCOCC3)cc2)C(=O)N(C)[C@@H](CC(C)C)C(=O)O[C@H](C)C(=O)N1C [emodepside, Emodepside]
Time to resolution of drug-related TEAEs of interest after onset ([1]; all apart from visual impairment in one subject): ≤ 48 h
Nature and severity of drug-related TEAEs ([1]; all, apart from moderate headaches in two subjects at 40 mg LSF solution): transient in nature and mild in severity
Lag of drug-related TEAE of interest relative to Tmax, most subjects ([1]; in vivo): 0 to 2.5 h
Share of drug-related TEAEs of interest occurring at 1–3 h post-dose ([1]; in vivo): 83%
Time to resolution of visual impairment in one subject ([1]; in vivo): 21 days
Deaths or severe drug-related TEAEs ([1]; n = 142): no deaths or severe drug-related TEAEs reported
Subjects with drug-related TEAEs of interest, % ([1]; n = 142): 19.0%
Abdominal pain, % of subjects with drug-related TEAE ([1]; n = 142, pooled phase I): 0.7%
Balance disorder, % of subjects with drug-related TEAE ([1]; n = 142, pooled phase I): 0.7%
Cough, % of subjects with drug-related TEAE ([1]; n = 142, pooled phase I): 0.7%
Disorientation, % of subjects with drug-related TEAE ([1]; n = 142, pooled phase I): 0.7%
Disturbance in attention, % of subjects with drug-related TEAE ([1]; n = 142, pooled phase I): 0.7%
Euphoric mood, % of subjects with drug-related TEAE ([1]; n = 142, pooled phase I): 1.4%
Eye disorders, % of subjects with drug-related TEAE ([1]; n = 142, pooled phase I): 14.1%
Eye pain, % of subjects with drug-related TEAE ([1]; n = 142, pooled phase I): 0.7%
Feeling of relaxation, % of subjects with drug-related TEAE ([1]; n = 142, pooled phase I): 2.1%
Gastrointestinal disorders, % of subjects with drug-related TEAE ([1]; n = 142, pooled phase I): 2.8%
General disorders and administration site conditions, % of subjects with drug-related TEAE ([1]; n = 142, pooled phase I): 0.7%
Headache, % of subjects with drug-related TEAE ([1]; n = 142, pooled phase I): 4.2%
Hypervigilance, % of subjects with drug-related TEAE ([1]; n = 142, pooled phase I): 0.7%
Muscle spasms, % of subjects with drug-related TEAE ([1]; n = 142, pooled phase I): 0.7%
Musculoskeletal and connective tissue disorders, % of subjects with drug-related TEAE ([1]; n = 142, pooled phase I): 0.7%
Nausea, % of subjects with drug-related TEAE ([1]; n = 142, pooled phase I): 2.1%
Nervous system disorders, % of subjects with drug-related TEAE ([1]; n = 142, pooled phase I): 12.7%
Nervousness, % of subjects with drug-related TEAE ([1]; n = 142, pooled phase I): 0.7%
Oropharyngeal pain, % of subjects with drug-related TEAE ([1]; n = 142, pooled phase I): 0.7%
Paraesthesia oral, % of subjects with drug-related TEAE ([1]; n = 142, pooled phase I): 0.7%
Photophobia, % of subjects with drug-related TEAE ([1]; n = 142, pooled phase I): 1.4%
Photopsia, % of subjects with drug-related TEAE ([1]; n = 142, pooled phase I): 0.7%
Pigmentation disorder, % of subjects with drug-related TEAE ([1]; n = 142, pooled phase I): 0.7%
Psychiatric disorders, % of subjects with drug-related TEAE ([1]; n = 142, pooled phase I): 1.4%
Respiratory, thoracic and mediastinal disorders, % of subjects with drug-related TEAE ([1]; n = 142, pooled phase I): 0.7%
Sensation of foreign body, % of subjects with drug-related TEAE ([1]; n = 142, pooled phase I): 0.7%
Skin and subcutaneous tissue disorders, % of subjects with drug-related TEAE ([1]; n = 142, pooled phase I): 0.7%
Somnolence, % of subjects with drug-related TEAE ([1]; n = 142, pooled phase I): 0.7%
Vision blurred, % of subjects with drug-related TEAE ([1]; n = 142, pooled phase I): 4.9%
Visual acuity reduced, % of subjects with drug-related TEAE ([1]; n = 142, pooled phase I): 0.7%
Visual impairment, % of subjects with drug-related TEAE ([1]; n = 142, pooled phase I): 9.2%
Vomiting, % of subjects with drug-related TEAE ([1]; n = 142, pooled phase I): 0.7%
Subjects with drug-related TEAEs, % ([1]; n = 142, pooled phase I, oral 1–40 mg): 21.8%
Abdominal pain, subjects experiencing drug-related TEAE ([1]; of n = 142, pooled phase I): 1
Balance disorder, subjects experiencing drug-related TEAE ([1]; of n = 142, pooled phase I): 1
Cough, subjects experiencing drug-related TEAE ([1]; of n = 142, pooled phase I): 1
Disorientation, subjects experiencing drug-related TEAE ([1]; of n = 142, pooled phase I): 1
Disturbance in attention, subjects experiencing drug-related TEAE ([1]; of n = 142, pooled phase I): 1
Euphoric mood, subjects experiencing drug-related TEAE ([1]; of n = 142, pooled phase I): 2
Eye disorders, subjects experiencing drug-related TEAE ([1]; of n = 142, pooled phase I): 20
Eye pain, subjects experiencing drug-related TEAE ([1]; of n = 142, pooled phase I): 1
Feeling of relaxation, subjects experiencing drug-related TEAE ([1]; of n = 142, pooled phase I): 3
Gastrointestinal disorders, subjects experiencing drug-related TEAE ([1]; of n = 142, pooled phase I): 4
General disorders and administration site conditions, subjects experiencing drug-related TEAE ([1]; of n = 142, pooled phase I): 1
Headache, subjects experiencing drug-related TEAE ([1]; of n = 142, pooled phase I): 6
Hypervigilance, subjects experiencing drug-related TEAE ([1]; of n = 142, pooled phase I): 1
Muscle spasms, subjects experiencing drug-related TEAE ([1]; of n = 142, pooled phase I): 1
Musculoskeletal and connective tissue disorders, subjects experiencing drug-related TEAE ([1]; of n = 142, pooled phase I): 1
Nausea, subjects experiencing drug-related TEAE ([1]; of n = 142, pooled phase I): 3
Nervous system disorders, subjects experiencing drug-related TEAE ([1]; of n = 142, pooled phase I): 18
Nervousness, subjects experiencing drug-related TEAE ([1]; of n = 142, pooled phase I): 1
Oropharyngeal pain, subjects experiencing drug-related TEAE ([1]; of n = 142, pooled phase I): 1
Paraesthesia oral, subjects experiencing drug-related TEAE ([1]; of n = 142, pooled phase I): 1
Photophobia, subjects experiencing drug-related TEAE ([1]; of n = 142, pooled phase I): 2
Photopsia, subjects experiencing drug-related TEAE ([1]; of n = 142, pooled phase I): 1
Pigmentation disorder, subjects experiencing drug-related TEAE ([1]; of n = 142, pooled phase I): 1
Psychiatric disorders, subjects experiencing drug-related TEAE ([1]; of n = 142, pooled phase I): 2
Respiratory, thoracic and mediastinal disorders, subjects experiencing drug-related TEAE ([1]; of n = 142, pooled phase I): 1
Sensation of foreign body, subjects experiencing drug-related TEAE ([1]; of n = 142, pooled phase I): 1
Skin and subcutaneous tissue disorders, subjects experiencing drug-related TEAE ([1]; of n = 142, pooled phase I): 1
Somnolence, subjects experiencing drug-related TEAE ([1]; of n = 142, pooled phase I): 1
Vision blurred, subjects experiencing drug-related TEAE ([1]; of n = 142, pooled phase I): 7
Visual acuity reduced, subjects experiencing drug-related TEAE ([1]; of n = 142, pooled phase I): 1
Visual impairment, subjects experiencing drug-related TEAE ([1]; of n = 142, pooled phase I): 13
Vomiting, subjects experiencing drug-related TEAE ([1]; of n = 142, pooled phase I): 1
Subjects with both eye disorders and nervous system disorders ([1]; of the 27 subjects with TEAE of interest): 41%
Subjects with drug-related TEAEs of interest (eye disorders and nervous system disorders), number ([1]; out of 142 subjects): 27
Subjects with drug-related TEAEs, number ([1]; out of 142 subjects): 31
Incidence of non drug-related infections and infestations, active treatment arms ([1]; vs. 0% placebo, p=0.13 (two-sided Fisher's exact test)): 10.5%
Venous plasma–DBS scaling factor, population estimate (%RSE) ([2]; DBS concentration as % of venous plasma concentration, DBS from 12 subjects): 61.8 (2.9) %
Vc/F, population estimate (%RSE) ([2]; central volume of distribution, oral, 75 kg adult, n = 142): 52.4 (3.4) L
Maximum difference in MTT between the lowest and the highest dose ([2]; dose range 1–40 mg, 0.012–0.667 mg per kg body weight per day): 70%
Q1/F, population estimate (%RSE) [2, 6]: 4.60 (5.1) L/h
Q2/F, population estimate (%RSE) [2, 6]: 8.45 (2.9) L/h
Dose on MTT, population estimate (%RSE) ([2]; linear, dose range 1–40 mg): 105 (22.3) % per mg /kg/day
CL/F ([2]; male, human, in vivo, po): 21.5 mL/min
MTT, population estimate (%RSE) ([2]; mean absorption transit time, oral, reference LSF solution, fasted, 75 kg adult, n = 142 healthy male subjects): 0.488 (3.5) h
Dose on MTT, bootstrapping median (95% CI) ([2]; nonparametric bootstrap): 104.5 (62.9–154) % per mg /kg/day
Venous plasma–DBS scaling factor, bootstrapping median (95% CI) ([2]; nonparametric bootstrap): 61.8 (58.2–65.2) %
MTT, bootstrapping median (95% CI) ([2]; nonparametric bootstrap, 860 successful runs of 1,000, 75 kg adult): 0.489 (0.456–0.521) h
CL/F, bootstrapping median (95% CI) [2, 7]: 1.29 (1.18–1.40) L/h
Q1/F, bootstrapping median (95% CI) [2, 7]: 4.60 (4.14–5.04) L/h
Q2/F, bootstrapping median (95% CI) [2, 7]: 8.43 (7.97–8.87) L/h
Vc/F, bootstrapping median (95% CI) [2, 7]: 52.4 (49.2–55.8) L
Vp1 / F, bootstrapping median (95% CI) [2, 7]: 45.1 (38.0–53.4) L
Vp2/F, bootstrapping median (95% CI) [2, 7]: 647 (592–707) L
Dose proportionality of exposure ([2]; present study population, 1–40 mg): dose-proportional
Food intake on MTT, population estimate (%RSE) ([2]; reference: fasted state): 114 (22.6) %
Reduction in F when the dose was given together with food ([2]; reference: fasted state): 24.4%
Food intake on MTT, bootstrapping median (95% CI) ([2]; reference: fasted state, nonparametric bootstrap): 114.7 (69.0–168) %
Vp1 / F, population estimate (%RSE) ([2]; volume of distribution of peripheral compartment 1, oral, 75 kg adult, n = 142): 44.4 (8.7) L
Vp2/F, population estimate (%RSE) ([2]; volume of distribution of peripheral compartment 2, oral, 75 kg adult, n = 142): 647 (4.5) L
Terminal half-life [3]: > 20 days
Slope of linear regression, DBS concentration vs. plasma concentration [4]: 0.605
Enzyme catalyzing oxidative metabolism [5]: predominantly catalyzed by CYP3A4
